Results: publication PMC3774368, “Functional Properties of Five Dictyostelium discoideum P2X Receptors” (The Journal of Biological Chemistry, 2013)
pEC50: −log10 of the molar value.

Assays:
Assay type in all cases: cell-based
P2XA [1] = molecular target: T1, P2XA (Dictyostelium discoideum, UniProt Q86JM7); experiment: whole-cell patch clamp, ATP-evoked current, HEK293 cells
T1 construct: humanized cDNA, full length, C-terminal EYMPME (EE) tag, pcDNA3.1, transient expression in HEK293 cells
T1 sequence (Q86JM7 1-378): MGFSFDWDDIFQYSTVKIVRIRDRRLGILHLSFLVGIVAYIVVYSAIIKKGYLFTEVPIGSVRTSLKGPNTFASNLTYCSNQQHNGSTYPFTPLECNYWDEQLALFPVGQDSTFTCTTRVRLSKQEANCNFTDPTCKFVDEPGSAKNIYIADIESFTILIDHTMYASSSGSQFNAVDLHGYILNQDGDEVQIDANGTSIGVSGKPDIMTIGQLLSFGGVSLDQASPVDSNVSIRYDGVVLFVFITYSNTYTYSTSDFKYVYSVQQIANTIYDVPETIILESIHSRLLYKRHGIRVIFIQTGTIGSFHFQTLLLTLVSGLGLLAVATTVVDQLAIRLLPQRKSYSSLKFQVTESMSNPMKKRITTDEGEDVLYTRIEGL

P2XE = molecular target: T2, P2XE (Dictyostelium discoideum, UniProt Q54JH4); experiment: as above
T2 construct: humanized cDNA (Genscript), full length, C-terminal EYMPME (EE) tag, pcDNA3.1, transient expression in HEK293 cells
T2 sequence (Q54JH4 1-388): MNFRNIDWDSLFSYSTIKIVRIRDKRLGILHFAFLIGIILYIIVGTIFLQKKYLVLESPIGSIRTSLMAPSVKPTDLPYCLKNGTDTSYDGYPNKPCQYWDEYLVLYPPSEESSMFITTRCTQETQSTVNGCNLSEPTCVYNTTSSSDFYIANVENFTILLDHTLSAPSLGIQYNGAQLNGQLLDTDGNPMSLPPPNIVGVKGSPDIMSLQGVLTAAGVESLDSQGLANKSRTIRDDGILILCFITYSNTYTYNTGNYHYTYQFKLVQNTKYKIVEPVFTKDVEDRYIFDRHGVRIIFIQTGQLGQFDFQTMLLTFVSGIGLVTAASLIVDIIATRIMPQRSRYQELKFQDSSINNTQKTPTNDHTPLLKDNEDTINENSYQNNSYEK

P2XD = molecular target: T3, P2XD (Dictyostelium discoideum, UniProt Q54J33); experiment: as above
T3 construct: humanized cDNA (Genscript), full length, C-terminal EYMPME (EE) tag, pcDNA3.1, transient expression in HEK293 cells
T3 sequence (Q54J33 1-407): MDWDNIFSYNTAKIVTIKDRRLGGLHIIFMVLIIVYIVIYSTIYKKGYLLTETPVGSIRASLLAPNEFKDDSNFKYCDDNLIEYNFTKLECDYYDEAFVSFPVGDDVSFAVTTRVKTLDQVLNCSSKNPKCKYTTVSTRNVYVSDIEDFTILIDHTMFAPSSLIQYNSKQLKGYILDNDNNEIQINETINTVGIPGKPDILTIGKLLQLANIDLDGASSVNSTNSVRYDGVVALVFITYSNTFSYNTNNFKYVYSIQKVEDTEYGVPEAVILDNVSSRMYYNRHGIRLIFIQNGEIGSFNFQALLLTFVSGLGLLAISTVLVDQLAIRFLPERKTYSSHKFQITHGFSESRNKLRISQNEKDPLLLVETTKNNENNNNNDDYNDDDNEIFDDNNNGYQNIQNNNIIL

P2XB = molecular target: T4, P2XB (Dictyostelium discoideum, UniProt Q553Y1); experiment: as above
T4 construct: humanized cDNA (Genscript), full length, C-terminal EYMPME (EE) tag, pcDNA3.1, transient expression in HEK293 cells
T4 sequence (Q553Y1 1-369): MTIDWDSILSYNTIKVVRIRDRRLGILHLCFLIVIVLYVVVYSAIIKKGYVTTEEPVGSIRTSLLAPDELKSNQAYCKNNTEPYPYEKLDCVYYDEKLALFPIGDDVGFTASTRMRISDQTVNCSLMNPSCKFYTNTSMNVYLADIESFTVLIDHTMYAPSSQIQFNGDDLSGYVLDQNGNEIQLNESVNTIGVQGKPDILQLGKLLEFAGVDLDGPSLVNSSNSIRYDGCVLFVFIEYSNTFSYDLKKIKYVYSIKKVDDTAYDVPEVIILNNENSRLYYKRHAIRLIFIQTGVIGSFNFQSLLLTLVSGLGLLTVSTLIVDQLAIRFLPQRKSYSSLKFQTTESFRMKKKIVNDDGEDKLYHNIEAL

P2XA [2] = molecular target: T1, P2XA; experiment: whole-cell patch clamp, ADP-evoked current, HEK293 cells; details: weak agonist; external and internal Na+; authors note possible ATP impurity in commercial nucleotides

Row | pEC50 (P2XA [1]) | pEC50 (P2XE) | pEC50 (P2XD) | pEC50 (P2XB) | % of ATP current at 3 mM (P2XA [2]) | SMILES
1 | 3.80 | ~3.52 | ~2.52 | ~2.52 |  | Nc1ncnc2c1ncn2[C@@H]1O[C@H](COP(=O)(O)OP(=O)(O)OP(=O)(O)O)[C@@H](O)[C@H]1O [ATP]
2 |  |  |  |  | ~ 10% | Nc1ncnc2c1ncn2[C@@H]1O[C@H](COP(=O)(O)OP(=O)(O)O)[C@@H](O)[C@H]1O [ADP]
